The values that follow come from patent publication US20200339544A1 (JOINT STOCK COMPANY "BIOCAD", priority 2017, published 2020).

Structures can show the parent of a compound that is named as a salt.

Data set [1] is described as follows: Chemical stability in simulated intestinal fluid (SIF). Format: physicochemical. Particulars: SIF without enzymes, pH 6.5; 10 μm; 2 hours at 37° C.; substance amount remaining. In short, it runs like this:
(§1)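 Compound at 10 μm (diluted from 10 mM DMSO stock) incubated 2 h at 37° C in enzyme-free SGF, pH=1,4, or enzyme-free SIF, pH=6.5. HPLC peak areas before and after incubation give % compound remaining.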

For another data set, the target named is T1, WT EGFR (Wild-Type EGFR) (Homo sapiens, UniProt P00533).
T1 construct: purchased SignalChem
The data set can be described thus: Inhibition of WT EGFR kinase activity (ADP-Glo). In kind it is biochemical. In short, it runs like this:
(§2)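 Luminescent ADP-Glo readout was used for both wild-type and L858R/T790M EGFR, each run 180 minutes at 37° C. Reactions used a solution of 50 μM ATP with 0.5 mg/mL peptide substrate. Four-parameter logistic curves gave IC50.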

Data set [2] can be described thus: Enzyme stability in human liver S9 fractions. Format: in vitro ADME. Particulars: 0.5 mg/mL pooled human liver S9 fractions; 10 μM compound; 37° C.; pH 7.4; read-out: Stability in liver S9 fractions, Clint. The essentials:
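Compound at 10 μM was incubated at 37 °C with 0.5 mg/mL pooled human liver S9, 2 mM β-NAD and 4 mM MgCl2 in 0.1 M sodium phosphate, pH 7.4, then quenched with acetonitrile and analysed chromatographically. T½ and CLint were derived from the slope of log peak area versus time.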

Data set [3] can be described thus: Chemical stability in simulated gastric fluid (SGF). Conditions: SGF without enzymes, pH 1,4; 10 μm; 2 hours at 37° C.; substance amount remaining. Format: physicochemical. In short, it runs like this: as §1
The test system of data set [4] is A549 (lung adenocarcinoma, WT). Briefly: Antiproliferative activity on A549 cells (Alamar Blue). Particulars: Homo sapiens, antiproliferative test. Format: cell-based. In short, it runs like this: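 Viability read by Alamar Blue fluorescence (λEx 540, λEm 590 nm) 3-5 h after dye addition, following 72 h compound treatment at 37° C in 2% FBS RPMI-1640, ≤1% DMSO. Seeding 5*10^3 cells/well, 16-18 h attachment. Four-parameter logistic model gave IC50.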

In data set [5] the target is T2, DM EGFR (DoubleMutantEGFR, L828R/T790M) (Homo sapiens, UniProt P00533, L858R/T790M).
T2 construct: purchased SignalChem
Briefly: Inhibition of DM EGFR kinase activity (ADP-Glo). Particulars: for IC50: inhibition of kinase activity, EGFR DM (L828R/T790M); for SI, IC50(WT)/IC50(DM): selectivity index, kinase EGFR WT vs EGFR DM. In kind it is biochemical. The essentials: as §2

Data set [6] deals with HCC827 (lung adenocarcinoma, SM, exon19delE746-A750). Briefly: Antiproliferative activity on HCC827 cells (Alamar Blue). In kind it is cell-based. Particulars: Homo sapiens, antiproliferative test. The essentials:
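HCC827 cells (EGFR exon19del E746-A750), 10×10^3/well, attached 16–18 h, then exposed to compounds for 72 h at 37 °C in RPMI-1640 with 2% FBS, ≤1% DMSO. Viability by Alamar Blue fluorescence (ex 540/em 590 nm) after 3–5 h; IC50 by four-parameter logistic fit.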

For the compound `C=CC(=O)Nc1cc(Nc2nccc(C(=O)c3ccc(F)cc3)n2)c(OC)cc1N(C)CCN(C)C` [EGFR_3365_10, N-(2-((2-(dimethylamino)ethyl)(methyl)amino)-5-((4-(4-fluorobenzoyl)pyrimidin-2-yl)amino)-4-methoxyphenyl) acrylamide], in data set [1], the “Stability in SIF, %” value was 100.0%. Further, the IC50 was 211 nM on WT EGFR (Wild-Type EGFR), 13200 nM in data set [4], 7.28 nM in data set [5] and 5.9 nM in data set [6]. For the same compound, in data set [2], the Intrinsic clearance in human liver S9 fractions at 10 µM came out at 6.8 µL/min/mg. For the same compound, the “Stability in SGF, %” value in data set [3] is listed as 100.0%. In data set [5], the “SI, IC50(WT)/IC50(DM)” value came to 29.06.
For the compound `C=CC(=O)Nc1cc(Nc2nccc(C(=O)c3ccc(OCc4ccccc4)cc3)n2)c(OC)cc1N(C)CCN(C)C` [EGFR_3365_16, N-(5-((4-(4-(benzyloxy)benzoyl)pyrimidin-2-yl)amino)-2-((2-(dimethylamino)ethyl)(methyl)amino)-4-methoxyphenyl)acrylamide], the “Stability in SIF, %” value in data set [1] is 100.0%. For the same compound, the IC50 at WT EGFR (Wild-Type EGFR) is 154 nM; in data set [4], 2210 nM; in data set [5], 32.8 nM; in data set [6], 10 nM. In data set [2], the Intrinsic clearance in human liver S9 fractions at 10 µM is 17.9 µL/min/mg. The “Stability in SGF, %” value in data set [3] is given as 100.0%. The “SI, IC50(WT)/IC50(DM)” value in data set [5] is given as 4.70.
Regarding `C=CC(=O)Nc1cc(Nc2nccc(C(=O)c3ccc(Oc4ccccc4)cc3)n2)c(OC)cc1N(C)CCN(C)C` [EGFR_3365_17, N-(2-((2-(dimethylamino)ethyl)(methyl)amino)-4-methoxy-5-((4-(4-phenoxybenzoyl)pyrimidin-2-yl)amino)phenyl)acrylamide], in data set [1], the “Stability in SIF, %” value is reported as 98.8%. For the same compound, the IC50 was found to be 171 nM on WT EGFR (Wild-Type EGFR), 2390 nM in data set [4], 21.5 nM in data set [5] and 41.3 nM in data set [6]. In data set [2], the Intrinsic clearance in human liver S9 fractions at 10 µM was 10.9 µL/min/mg. Also, the “Stability in SGF, %” value in data set [3] is given as 100.0%. For the same compound, the “SI, IC50(WT)/IC50(DM)” value in data set [5] amounted to 7.95.
As to `C=CC(=O)Nc1cc(Nc2nccc(C(=O)c3ccc(OCCC)cc3)n2)c(OC)cc1N(C)CCN(C)C` [EGFR_3365_30, N-(2-((2-(dimethylamino)ethyl)(methyl)amino)-4-methoxy-5-((4-(4-propoxybenzoyl)pyrimidin-2-yl)amino)phenyl)acrylamide], the “Stability in SIF, %” value in data set [1] was 92.9%. In addition, the IC50 against WT EGFR (Wild-Type EGFR) turned out to be 613 nM; in data set [4] it was 5540 nM; in data set [5], 7.69 nM; in data set [6], 2 nM. Moreover, in data set [2], the Intrinsic clearance in human liver S9 fractions at 10 µM was 1.2 µL/min/mg. Moreover, in data set [3], the “Stability in SGF, %” value was 100.0%. Further, in data set [5], the “SI, IC50(WT)/IC50(DM)” value came to 79.77.
As for `C=CC(=O)Nc1cc(Nc2cc(C(=O)c3ccc(OCCC)cc3)ccn2)c(OC)cc1N(C)CCN(C)C` [EGFR_3365_50, N-(2-((2-(dimethylamino)ethyl)(methyl)amino)-4-methoxy-5-((4-(4-propoxybenzoyl)pyridin-2-yl)amino)phenyl)acrylamide], the “Stability in SIF, %” value in data set [1] is given as 98.5%. The 50% inhibitory concentration (IC50) at WT EGFR (Wild-Type EGFR) was found to be 32 nM; in data set [4], 4920 nM; in data set [5], 3.29 nM; in data set [6], 26.9 nM. Besides, the Intrinsic clearance in human liver S9 fractions at 10 µM in data set [2] was 1.1 µL/min/mg. For the same compound, the “Stability in SGF, %” value in data set [3] is listed as 100.0%. Also, the “SI, IC50(WT)/IC50(DM)” value in data set [5] is 9.74.
With `C=CC(=O)Nc1cc(Nc2cc(C(=O)c3ccc(OC)cc3)ccn2)c(OC)cc1N(C)CCN(C)C` [EGFR_3365_51, N-(2-((2-(dimethylamino)ethyl)(methyl)amino)-4-methoxy-5-((4-(4-methoxybenzoyl)pyridin-2-yl)amino)phenyl)acrylamide], the “Stability in SIF, %” value in data set [1] is given as 100.0%. The IC50 on WT EGFR (Wild-Type EGFR) amounted to 50.8 nM; in data set [4], 11500 nM; in data set [5], 4.72 nM; in data set [6], 8.6 nM. Further, in data set [2], the Intrinsic clearance in human liver S9 fractions at 10 µM was determined as 16.2 µL/min/mg. Moreover, the “Stability in SGF, %” value in data set [3] is reported as 100.0%. In addition, the “SI, IC50(WT)/IC50(DM)” value in data set [5] was determined as 10.75.
For `C=CC(=O)Nc1cc(Nc2cc(C(=O)c3ccc(OCC)cc3)ccn2)c(OC)cc1N(C)CCN(C)C` [EGFR_3365_52, N-(2-((2-(dimethylamino)ethyl)(methyl)amino)-5-((4-(4-ethoxybenzoyl)pyridin-2-yl)amino)-4-methoxyphenyl) acrylamide], in data set [1], the “Stability in SIF, %” value is 100.0%. The IC50 came to 67.9 nM at WT EGFR (Wild-Type EGFR), 10800 nM in data set [4], 6.41 nM in data set [5] and 22.5 nM in data set [6]. In addition, the Intrinsic clearance in human liver S9 fractions at 10 µM in data set [2] was determined as 16.6 µL/min/mg. In data set [3], the “Stability in SGF, %” value is reported as 100.0%. Moreover, in data set [5], the “SI, IC50(WT)/IC50(DM)” value was determined as 10.58.
Take `C=CC(=O)Nc1cc(Nc2cc(C(=O)c3ccc(N4CCN(C)CC4)cc3)ccn2)c(OC)cc1N(C)CCN(C)C` [EGFR_3365_55, N-(2-((2-(dimethylamino)ethyl)(methyl)amino)-4-methoxy-5-((4-(4-(4-methylpiperazin-1-yl)benzoyl)pyridin-2-yl)amino)phenyl)acrylamide]: the “Stability in SIF, %” value in data set [1] is on record as 97.2%. Besides, the IC50 against WT EGFR (Wild-Type EGFR) amounted to 76.6 nM; in data set [4], 11600 nM; in data set [5], 25.4 nM; in data set [6], 20.1 nM. In addition, in data set [2], the Intrinsic clearance in human liver S9 fractions at 10 µM came to 5 µL/min/mg. Further, in data set [3], the “Stability in SGF, %” value is recorded as 98.8%. The “SI, IC50(WT)/IC50(DM)” value in data set [5] is recorded as 3.02.
Consider `C=CC(=O)Nc1cc(Nc2cc(C(=O)c3ccc(N4CCCC4)cc3)ccn2)c(OC)cc1N(C)CCN(C)C` [EGFR_3365_56, N-(2-((2-(dimethylamino)ethyl)(methyl)amino)-4-methoxy-5-((4-(4-(pyrrolidin-1-yl)benzoyl)pyridin-2-yl)amino)phenyl)acrylamide], for which, in data set [1], the “Stability in SIF, %” value is recorded as 96.4%. Also, the IC50 on WT EGFR (Wild-Type EGFR) was 121 nM; in data set [4], 4540 nM; in data set [5] it was 6.3 nM; in data set [6] it was 29.9 nM. Further, the Intrinsic clearance in human liver S9 fractions at 10 µM in data set [2] turned out to be 9.1 µL/min/mg. In data set [3], the “Stability in SGF, %” value is 99.8%. Further, the “SI, IC50(WT)/IC50(DM)” value in data set [5] was determined as 19.14.
Consider `C=CC(=O)Nc1cc(Nc2nccc(C(=O)c3ccc(N4CCC4)cc3)n2)c(OC)cc1N(C)CCN(C)C` [EGFR_3365_58, N-(5-((4-(4-(azetidin-1-yl)benzoyl)pyrimidin-2-yl)amino)-2-((2-(dimethylamino)ethyl)(methyl)amino)-4-methoxyphenyl)acrylamide], for which, in data set [1], the “Stability in SIF, %” value is recorded as 100.0%. In addition, the IC50 on WT EGFR (Wild-Type EGFR) was 39.7 nM; in data set [4], above 10000 nM; in data set [5], 2.36 nM; in data set [6], 6.23 nM. The Intrinsic clearance in human liver S9 fractions at 10 µM in data set [2] came to 17.7 µL/min/mg. In data set [3], the “Stability in SGF, %” value was 89.9%. In data set [5], the “SI, IC50(WT)/IC50(DM)” value is 16.81.
`C=CC(=O)Nc1cc(Nc2nccc(C(=O)c3ccc(N4CC(OC)C4)cc3)n2)c(OC)cc1N(C)CCN(C)C` [EGFR_3365_61, N-(2-((2-(dimethylamino)ethyl)(methyl)amino)-4-methoxy-5-((4-(4-(3-methoxyazetidin-1-yl)benzoyl)pyrimidin-2-yl)amino)phenyl)acrylamide]: in data set [1], the “Stability in SIF, %” value is 98.8%. In addition, the half-inhibitory concentration (IC50) on WT EGFR (Wild-Type EGFR) is 53.1 nM; in data set [4] it was 23400 nM; in data set [5], 2.76 nM; in data set [6] it was 5.77 nM. The Intrinsic clearance in human liver S9 fractions at 10 µM in data set [2] worked out at 12.8 µL/min/mg. The “Stability in SGF, %” value in data set [3] was 100.0%. Further, in data set [5], the “SI, IC50(WT)/IC50(DM)” value came to 19.27.
On to `C=CC(=O)Nc1cc(Nc2nccc(C(=O)c3ccc(N4CCN(C)CC4)cc3)n2)c(OC)cc1N(C)CCN(C)C` [EGFR_3365_62, N-(2-((2-(dimethylamino)ethyl)(methyl)amino)-4-methoxy-5-((4-(4-(4-methylpiperazin-1-yl)benzoyl)pyrimidin-2-yl)amino)phenyl)acrylamide formate], for which the “Stability in SIF, %” value in data set [1] is given as 100.0%. Moreover, the IC50 against WT EGFR (Wild-Type EGFR) was determined as 127 nM; in data set [4], 12300 nM; in data set [5], 6.58 nM; in data set [6], 12.1 nM. In addition, in data set [2], the Intrinsic clearance in human liver S9 fractions at 10 µM amounted to 3.7 µL/min/mg. For the same compound, the “Stability in SGF, %” value in data set [3] was 100.0%. Also, the “SI, IC50(WT)/IC50(DM)” value in data set [5] was 19.37.
